Results published in ChEMBL document CHEMBL2401727, “Searching for new antiarrhythmic agents: evaluation of meta-hydroxymexiletine enantiomers” (Eur J Med Chem, 2013).

Key:
Ileum [1] = assay: Relaxtant activity in guinea pig K+-depolarized ileum longitudinal smooth muscle assessed as inhibition of calcium-induced contraction at 10^-4 M relative to control; assay type: functional; conditions: Cavia porcellus
Left cardiac atrium [2] = assay: Negative inotropic activity in guinea pig left atria assessed as decrease of 1 Hz current-induced developed tension at 10^-6 M relative to control; assay type: functional, Cavia porcellus; parameters: scale not given: the % may be the effect or the level left
Heart [3] = assay: Antiarrhythmic activity in guinea pig left atria assessed as increase of threshold of 1 Hz alternating current-induced arrhythmia at 1 Hz measured every 30 mins; assay type: functional, tissue-based; conditions: Cavia porcellus, 0.5 h
Aorta [4] = assay: Vasorelaxant activity in guinea pig K+-depolarized aortic strip assessed as inhibition of calcium-induced contraction at 5 X 10^-5 M relative to control; assay type: functional; conditions: Cavia porcellus
[5] = Negative chronotropic activity in guinea pig spontaneously beating right atria assessed as decrease in atrial rate at 10^-5 M relative to control; assay type: functional, Cavia porcellus, Cardiac atrium; parameters: scale not given: the % may be the effect or the level left
Heart [6] = assay: Antiarrhythmic activity in guinea pig left atria assessed as increase of threshold of 1 Hz alternating current-induced arrhythmia at 10^-6 M measured every 30 mins relative to control; assay type: functional, Cavia porcellus
Left cardiac atrium [7] = assay: Negative inotropic activity in guinea pig left atria assessed as decrease of 1 Hz current-induced developed tension; assay type: functional; conditions: Cavia porcellus
Aorta [8] = assay: Vasorelaxant activity in guinea pig K+-depolarized aortic strip assessed as inhibition of calcium-induced contraction at 10^-4 M relative to control; assay type: functional; conditions: Cavia porcellus
Left cardiac atrium [9] = assay: Negative inotropic activity in guinea pig left atria assessed as decrease of 1 Hz current-induced developed tension at 5 X 10^-5 M relative to control; assay type: functional, Cavia porcellus; parameters: scale not given: the % may be the effect or the level left
Ileum [10] = assay: Relaxtant activity in guinea pig K+-depolarized ileum longitudinal smooth muscle assessed as inhibition of calcium-induced contraction; assay type: functional, tissue-based; conditions: Cavia porcellus
Heart [11] = assay: Antiarrhythmic activity in guinea pig left atria assessed as increase of threshold of 1 Hz alternating current-induced arrhythmia at 10^-4 M measured every 30 mins relative to control; assay type: functional, Cavia porcellus
[12] = Elimination half life in human; conditions: in vivo

Structure (SMILES)	inhibition at 100 µM (Ileum [1]) [%]	Activity (Left cardiac atrium [2]) [%]	EC50 (Heart [3]) [nM]	inhibition at 50 µM (Aorta [4]) [%]	Activity [5] [%]	%max (Heart [6]) [%]	EC50 (Left cardiac atrium [7]) [nM]	inhibition at 100 µM (Aorta [8]) [%]	Activity (Left cardiac atrium [9]) [%]	IC50 (Ileum [10]) [µM]	%max (Heart [11]) [%]	half-life [12] [min]
Cc1ccc(O)c(C)c1OC[C@@H](C)N	47	89	560	1	34	66	25	–	–	–	–	–
Cc1ccc(O)c(C)c1OC[C@H](C)N	75	–	–	–	16	–	120	4	93	13.6	13	–
Cc1ccc(O)c(C)c1OCC(C)N (racemic)	51	–	–	–	–	–	–	–	–	25.8	–	–
Cc1cccc(C)c1OCC(C)N (centres undefined) [MEXILETINE]	81	–	–	–	–	–	–	–	–	8.52	–	600
